Data as given in BindingDB's records for doi:10.1016/s0960-894x(02)00102-6 (Schering-Plough Research Institute, 2002).
pKi: −log10 of the molar value.

Assay: Michaelis-Menten constant was determined against Hepatitis C virus NS3 protease and represented as Km

## CCCN(NC(=O)[C@H]1CCCN1C(=O)[C@@H](NC(=O)[C@@H](NC(=O)[C@H](CC(=O)O)NC(=O)[C@H](CCC(=O)O)NC(=O)[C@@H](NC(C)=O)[C@@H](C)O)C(C)C)C(C)C)C(=O)Oc1ccc([N+](=O)[O-])cc1 [Azapeptide]
  pKi: 5.10
